Experimental data taken from patent US10052322B2 (SIGNAL PHARMACEUTICALS, LLC, priority 2013, dated 2018).
In brackets after ≈: the same amount, converted by molar mass. Entries after “also recorded” stand apart in the source; their conditions may differ. Where two headings read alike, the source gives them in different places.

Columns and labels:
Assay type in all cases: physicochemical
[1] = Solubility of Form A in selected aqueous and organic solvents (HPLC); conditions: thermodynamic from solid, read-out: Solubility (mg/mL) (room temperature)
Protocol: Solubility of Form A in selected aqueous and organic solvents was determined by mixing solid with solvents at room temperature. […] Solubility of Form B and Form C in water was also determined by the same HPLC method.

[2] = Hygroscopicity by dynamic vapor sorption (DVS)
Protocol: Hygroscopicity was determined on a Surface Measurement Systems DVS. Typically a sample size of 2-10 mg was loaded into the DVS instrument sample pan and the sample was analyzed on a DVS automated sorption analyzer at room temperature. […] The relative humidity was then decreased in a similar manner to accomplish a full adsorption/desorption cycle. For selected hydrated forms, the analysis started at 50% RH and increased to 90% RH at 10% RH step. The relative humidity was then decreased in a similar manner to 0% RH followed by increasing to 50% RH.

[3] = Equilibration / slurry experiments of Form A (XRPD)
Protocol: (§1) All of the solid samples generated in the polymorph screen were analyzed by XRPD. XRPD analysis was conducted on a Thermo ARL X'TRA X-ray powder diffractometer using Cu Kα radiation at 1.54 Å. The instrument was equipped with a fine focus X-ray tube. The voltage and amperage of the X-ray generator were set at 45 kV and 40 mA, respectively. The divergence slits were set at 4 mm and 2 mm and the measuring slits were set at 0.5 mm and 0.2 mm. Diffracted radiation was measured using a Peltier-cooled Si (Li) solid-state detector. A theta-two theta continuous scan at 2.40/min (0.5 sec/0.02° step) from 1.5° to 40° 2θ was used. A sintered alumina standard was used to check the peak positions. […] The resulting mixture was agitated for at least 24 hours at room temperature and 50° C. separately. Upon reaching equilibrium, the saturated supernatant solution was removed and allowed to evaporate slowly in an open vial under nitrogen at room temperature and 50° C., respectively. The solid resulting from the equilibration was filtered and air-dried before analysis.

[4] = Evaporation experiments (XRPD); conditions: evaporation at 50° C.
Protocol: as §1

[5] = Form transfer / competitive slurry experiments
Protocol: The resulting mixture was agitated for at least 24 hours at room temperature and 50° C. separately. Upon reaching equilibrium, the saturated supernatant solution was removed and allowed to evaporate slowly in an open vial under nitrogen at room temperature and 50° C., respectively. The solid resulting from the equilibration was filtered and air-dried before analysis.

[6] = humidity from about 0% to about 50% RH at about 25° C.
[7] = humidity from about 0% to about 95% RH at about 25° C.
[8] = humidity increased from about 0% to about 80% RH
[9] = humidity increased from about 80% to about 90% RH
[10] = slurry in MeOH/water (1:1), seed None, 1 week

CCN1C(=O)CNc2ncc(-c3ccc(-c4nnc[nH]4)nc3C)nc21 [Form A, 1-ethyl-7-(2-methyl-6-(1H-1,2,4-triazol-3-yl)pyridin-3-yl)-3,4-dihydropyrazino[2,3-b]pyrazin-2(1H)-one]
solubility at 24 h ([1]; 0.1N HCl, simulated gastric fluid): 7.1 mg/mL (≈ 21100 µM)
solubility at 24 h ([1]; 0.9% NaCl, saline or isotonic): 0.03 mg/mL (≈ 89.2 µM)
solubility at 24 h ([1]; acetone, organic solvent or mixture): 0.46 mg/mL (≈ 1370 µM)
solubility at 24 h ([1]; acetonitrile, organic solvent or mixture): 0.14 mg/mL (≈ 416 µM)
solubility at 24 h ([1]; aqueous buffer, Acetate buffer pH 4.0): 0.06 mg/mL (≈ 178 µM)
solubility at 24 h ([1]; aqueous buffer, Phosphate buffer pH 6.8): 0.05 mg/mL (≈ 149 µM)
solubility at 24 h ([1]; ethanol, organic solvent or mixture): 0.5 mg/mL (≈ 1490 µM)
solubility at 24 h ([1]; ethyl acetate, organic solvent or mixture): 0.32 mg/mL (≈ 951 µM)
solubility at 24 h ([1]; heptane, organic solvent or mixture): < 0.005 mg/mL
solubility at 24 h ([1]; isopropanol, organic solvent or mixture): 0.28 mg/mL (≈ 832 µM)
solubility at 24 h ([1]; methanol, organic solvent or mixture): 1.13 mg/mL (≈ 3360 µM)
solubility ([1]; organic solvent or mixture, Dimethyl Sulfoxide, estimated from visual observation of complete dissolution): > 50 mg/mL
solubility at 24 h ([1]; tetrahydrofuran, organic solvent or mixture): 5.5 mg/mL (≈ 16400 µM)
solubility at 24 h ([1]; Water, room temperature, 24 hours): 0.08 mg/mL (≈ 238 µM)
hygroscopicity ([2]; DVS, in words): non-hygroscopic; also recorded: not hygroscopic
Moisture sorption (wt % at 90% RH) [2]: 0.4 wt %
weight gain [2, 6]: about 0.2 % w/w
weight gain [2, 7]: about 0.5 % w/w
mass gain [2, 8]: less than 0.35 % w/w
mass gain [2, 9]: about 0.08 % w/w
XRPD Result 24 hours ([3]; equilibration at room temperature, 2-Propanol): Form A
XRPD Result 24 hours ([3]; equilibration at room temperature, Acetone): Form A
XRPD Result 24 hours ([3]; equilibration at room temperature, Acetonitrile): Form A
XRPD Result 24 hours ([3]; equilibration at room temperature, Ethanol): Form A
XRPD Result 24 hours ([3]; equilibration at room temperature, Ethanol/Water (1:1)): Form A
XRPD Result 24 hours ([3]; equilibration at room temperature, Ethyl acetate): Form A
XRPD Result 24 hours ([3]; equilibration at room temperature, Heptane): Form A
XRPD Result 24 hours ([3]; equilibration at room temperature, Methanol): Form A
XRPD Result 24 hours ([3]; equilibration at room temperature, Methyl ethyl ketone): Form A
XRPD Result 24 hours ([3]; equilibration at room temperature, Methyl t-butyl ether): Form A
XRPD Result 24 hours ([3]; equilibration at room temperature, Methylene chloride): Form A
XRPD Result 24 hours ([3]; equilibration at room temperature, Tetrahydrofuran): Form A
XRPD Result 24 hours ([3]; equilibration at room temperature, Toluene): Form A
XRPD Result 24 hours ([3]; equilibration at room temperature, Water): Form A
XRPD Result 24 hours ([3]; equilibration at room temperature, n-Butanol): Form A
XRPD Result 24 hours ([3]; slurry at 50° C., 2-Propanol): Form A
XRPD Result 24 hours ([3]; slurry at 50° C., Acetone): Form A
XRPD Result 24 hours ([3]; slurry at 50° C., Acetonitrile): Form A
XRPD Result 24 hours ([3]; slurry at 50° C., Ethanol): Form A
XRPD Result 24 hours ([3]; slurry at 50° C., Ethanol/Water (1:1)): Form A
XRPD Result 24 hours ([3]; slurry at 50° C., Ethyl acetate): Form A
XRPD Result 24 hours ([3]; slurry at 50° C., Heptane): Form A
XRPD Result 24 hours ([3]; slurry at 50° C., Methanol): Form A
XRPD Result 24 hours ([3]; slurry at 50° C., Methyl ethyl ketone): Form A
XRPD Result 24 hours ([3]; slurry at 50° C., Tetrahydrofuran): Form A
XRPD Result 24 hours ([3]; slurry at 50° C., Toluene): Form A
XRPD Result 24 hours ([3]; slurry at 50° C., Water): Form A
XRPD Result 24 hours ([3]; slurry at 50° C., n-Butanol): Form A
XRPD Result ([4]; Methanol): Form A + B
XRPD Result ([4]; Tetrahydrofuran): Amorphous, degraded
XRPD Result ([5]; slurry in Acetonitrile, seed None, 2 weeks): Form A
XRPD Result ([5]; slurry in EtOH/H2O (1:1), seed Form B, 1 week): Form A
XRPD Result ([5]; slurry in EtOH/H2O (1:1), seed Form C, 1 week): Form A
XRPD Result ([5]; slurry in Ethanol/Water (1:1), seed None, 2 weeks): Form A
XRPD Result ([5]; slurry in H2O, seed Form B, 1 week): Form A
XRPD Result ([5]; slurry in H2O, seed Form C, 7 weeks): Form A + C
XRPD Result ([5]; slurry in H2O, seed None, 2 weeks): Form A
XRPD Result ([5]; slurry in MTBE, seed None, 2 weeks): Form A
XRPD Result ([5]; slurry in MeOH, seed Form B, 1 week): Form A
XRPD Result ([5]; slurry in MeOH, seed Form C, 1 week): Form A
XRPD Result ([5]; slurry in MeOH, seed None, 2 weeks): Form A

CCN1C(=O)CNc2ncc(-c3ccc(-c4nnc[nH]4)nc3C)nc21 [Form B, 1-ethyl-7-(2-methyl-6-(1H-1,2,4-triazol-3-yl)pyridin-3-yl)-3,4-dihydropyrazino[2,3-b]pyrazin-2(1H)-one]
Moisture sorption (wt % at 90% RH) ([2]; listed as B): 20.7 wt %
XRPD Result ([5]; slurry in Acetonitrile, seed None, 3 days): Form A

CCN1C(=O)CNc2ncc(-c3ccc(-c4nnc[nH]4)nc3C)nc21 [Form C, 1-ethyl-7-(2-methyl-6-(1H-1,2,4-triazol-3-yl)pyridin-3-yl)-3,4-dihydropyrazino[2,3-b]pyrazin-2(1H)-one]
Moisture sorption (wt % at 90% RH) ([2]; listed as C): 12.2 wt %
XRPD Result ([5]; slurry in H2O, seed None, 1 week): Form C
XRPD Result [5, 10]: Form C

CCN1C(=O)CNc2ncc(-c3ccc(-c4nnc[nH]4)nc3C)nc21 [Form E, 1-ethyl-7-(2-methyl-6-(1H-1,2,4-triazol-3-yl)pyridin-3-yl)-3,4-dihydropyrazino[2,3-b]pyrazin-2(1H)-one]
Moisture sorption (wt % at 90% RH) [2]: 5.9 wt %
weight gain [2, 6]: about 2.3 % w/w
weight gain [2, 7]: about 5.8 % w/w
mass gain [2, 8]: less than 4 % w/w
mass gain [2, 9]: about 1.1 % w/w
XRPD Result ([5]; slurry in Acetonitrile, seed None, 1 week): Form A
XRPD Result [5, 10]: Form C
